Results from patent publication US10947196B2, “Beta adrenergic agonist and methods of using the same” (CURASEN THERAPEUTICS, INC., priority 2019, dated 2021).
pEC50: −log10 of the molar value. Read-outs that look alike come from different tables or passages of the source.

Columns and labels:
[1] = Hepatocyte stability (human); assay type: in vitro ADME; conditions: 0.5×10^6 viable cells/mL
Method: (§1) 10 mM and 100 μM stock solutions of test compound(s) and a positive control were prepared in appropriate solvent (DMSO). In separate conical tubes, the 10 mM test compound and the positive control were diluted to 100 μM by combining 198 μL of 50% acetonitrile/50% water and 2 μL of 10 mM stock. The 100 μM test compound and the positive control were diluted to 30 μM by combining 140 μL of 50% acetonitrile/50% water and 60 μL of 100 μM stock solution. The 100 μM test compound and the positive control were diluted to 10 μM by combining 180 μL of 50% acetonitrile/50% water and 20 μL of 100 μM stock solution. The 100 μM test compound and the positive control were diluted to 3 μM by combining 194 μL of 50% acetonitrile/50% water and 6 μL of 100 μM stock solution.
(§2) Incubation medium (William's E Medium supplemented with GlutaMAX) and hepatocyte thawing medium was placed in a 37° C. water bath, and allowed to warm for at least 15 minutes prior to use. A vial of cryopreserved hepatocytes from storage was then removed, ensuring that the vial remains at cryogenic temperatures until thawing process ensues. Cells were thawed by placing the vial in a 37° C. water bath and gently shaking the vial for 2 minutes. After thawing was completed, the vial was sprayed with 70% ethanol and transferred to a biosafety cabinet.
(§3) A wide-bore pipette tip was used to transfer hepatocytes into 50 mL conical tube containing thawing medium. The 50 mL conical tube was placed into a centrifuge and spun at 100 g for 10 minutes. Upon completion of spin, the thawing medium was aspirated and the hepatocytes were resuspended in enough incubation medium to yield ˜1.5×10^6 cells/mL.
(§4) Using AOPI staining solution, cells were counted and the viable cell density was determined. Cells with poor viability (<75% viability) are not acceptable for use. […]
(§5) All calculations were carried out using Microsoft Excel. Peak areas were determined from extracted ion chromatograms. […]
(§6) The in vitro half-life (in vitro t1/2) was determined from the slope value: in vitro t1/2=0.693/k

β1-adrenergic receptor = β1-adrenergic receptor (Homo sapiens (Human), UniProt P08588); assay: cAMP Gs dynamic HTRF assay, β1 expressing CHO cells; assay type: cell-based; conditions: for Average pEC50 [Receptor subtype: B1-AR; Cell type: CHO-K1 (HitHunter)] / pEC50: B1-AR; for pEC50: CHO-K cells, read-out: Average EC50 [Receptor subtype: B1-AR, Cell type: CHO-K]
β1-adrenergic receptor, sequence (P08588 whole entry, species assumed): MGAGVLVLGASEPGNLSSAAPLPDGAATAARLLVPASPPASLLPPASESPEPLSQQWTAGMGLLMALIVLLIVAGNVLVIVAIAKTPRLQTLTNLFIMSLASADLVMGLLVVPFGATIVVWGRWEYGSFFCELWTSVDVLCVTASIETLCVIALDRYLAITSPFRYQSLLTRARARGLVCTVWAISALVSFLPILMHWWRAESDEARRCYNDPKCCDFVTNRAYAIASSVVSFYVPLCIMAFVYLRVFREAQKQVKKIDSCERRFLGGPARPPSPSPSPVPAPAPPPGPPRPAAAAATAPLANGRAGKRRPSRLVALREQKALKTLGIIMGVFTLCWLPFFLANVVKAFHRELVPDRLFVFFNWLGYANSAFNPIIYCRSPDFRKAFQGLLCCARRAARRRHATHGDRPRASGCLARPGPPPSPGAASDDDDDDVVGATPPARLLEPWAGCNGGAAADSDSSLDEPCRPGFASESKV
In short: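 Intracellular cAMP quantified by Eu-donor/d2-acceptor HTRF after 30 min compound exposure at 37° C in stimulation buffer with IBMX. Concentrations ran 10 μM top, 5-fold steps, 10 points. Cell lines: 1321N1 astrocytoma and CHO expressing β1 or β2; EC50 via four-parameter fit, relative efficacy against isoproterenol.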

[2] = Hepatocyte stability (rat); assay type: in vitro ADME; conditions: 0.5×10^6 viable cells/mL
Method: as §1, §2, §3, §4, §5, §6

[3] = Rat CNS exposure measurement (plasma, CSF, brain); assay type: in vivo, male SD rats; conditions: male, SD

| concentration at 1 h ([3]; CSF, IV 1 mg/kg, read-out: Concentration, CSF) [ng/mL] | concentration at 1 h ([3]; CSF, PO 5 mg/kg, read-out: Concentration, CSF) [ng/mL] | concentration at 1 h ([3]; brain, IV 1 mg/kg, read-out: Concentration, Brain) [ng/g] | concentration at 1 h ([3]; brain, PO 5 mg/kg, read-out: Concentration, Brain) [ng/g] | concentration at 1 h ([3]; plasma, IV 1 mg/kg, read-out: Concentration, Plasma) [ng/mL] | concentration at 1 h ([3]; plasma, PO 5 mg/kg, read-out: Concentration, Plasma) [ng/mL] | Compound | Hepatocyte stability, Human [1] | EC50 (β1-adrenergic receptor; β1 EC50 (nM), cAMP HTRF) [nM] | Hepatocyte stability, Rat [2] | concentration at 1 h ([3]; CSF, iv, 1 mg/kg, IV 1 mg/kg, read-out: Concentration, CSF) [ng/mL] | concentration at 1 h ([3]; brain, iv, 1 mg/kg, IV 1 mg/kg, read-out: Concentration, Brain) [ng/g] | concentration at 1 h ([3]; plasma, iv, 1 mg/kg, IV 1 mg/kg, read-out: Concentration, Plasma) [ng/mL] | Average pEC50 [Receptor subtype: B1-AR; Cell type: CHO-K1 (HitHunter)] (β1-adrenergic receptor) | pEC50 (β1-adrenergic receptor) | concentration at 1 h ([3]; in vivo, SC 1 mg/kg, read-out: Concentration, Plasma) [ng/mL] | concentration at 1 h ([3]; in vivo, sc, 1 mg/kg, SC 1 mg/kg, read-out: Concentration, Brain) [ng/g] | concentration at 1 h ([3]; in vivo, sc, 1 mg/kg, SC 1 mg/kg, read-out: Concentration, CSF) [ng/mL] |
| --- | --- | --- | --- | --- | --- | --- | --- | --- | --- | --- | --- | --- | --- | --- | --- | --- | --- |
| – | – | – | – | – | – | CC(C)(C)NC[C@H](O)c1cccc(C(F)(F)F)n1 [Compound 03-3] | 0.9 μL/min/10^6 cells | 10 to 100 | 4.59 μL/min/10^6 cells | 142 | 680 | 199 | – | – | – | – | – |
| 113 | 242 | 267 | 497 | 184 | 642 | CC(C)(C)NC[C@H](O)c1cccc(C#N)n1 [Compound 03-5, (S)-6-(2-(tert-butylamino)-1-hydroxyethyl)picolinonitrile] | 0.36-0.59 μL/min/10^6 cells | – | 3.54-4.62 μL/min/10^6 cells | – | – | – | C (C = <7-6) | 6.00 to 7.00 | – | – | – |
| – | – | – | – | – | – | Cc1ncccc1[C@@H](O)CNC(C)(C)C [Compound 03-115] | 0.32 μL/min/10^6 cells | – | 20.61 μL/min/10^6 cells | – | – | – | C-D | < 6.00 | 149 | 142 | 56.2 |
